Experiments:
follicular lymphoma = details: double-refractory cases; Salles et al., Haematologica 2017; cited from earlier work
CD20 = target: T1, CD20 (Homo sapiens, UniProt P11836); details: rituximab versus IgG1-CD20; different epitopes; cited from earlier work
T1 sequence (P11836 1-297): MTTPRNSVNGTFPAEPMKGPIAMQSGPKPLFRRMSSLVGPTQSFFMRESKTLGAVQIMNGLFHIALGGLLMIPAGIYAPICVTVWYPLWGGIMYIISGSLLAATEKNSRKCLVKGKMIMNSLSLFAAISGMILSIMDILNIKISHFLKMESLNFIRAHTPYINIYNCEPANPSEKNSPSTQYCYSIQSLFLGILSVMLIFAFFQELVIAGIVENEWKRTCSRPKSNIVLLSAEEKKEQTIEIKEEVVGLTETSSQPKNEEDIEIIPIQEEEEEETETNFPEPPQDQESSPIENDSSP

[1] = tested on: CD20-expressing Raji-luc tumor cells; details: NOD-SCID mice with Raji-luc cells and PBMCs; even with excess IgG1-RTX-FEAR; cited from earlier work
[2] = tested on: CD20-expressing Daudi cells; test: T-cell-mediated cytotoxicity assay with lenalidomide-pre-treated T cells; type: cell-based; details: T cells pre-treated with lenalidomide and anti-CD3; E:T ratio 2:1
Description: T cells were incubated with (5 or 50 μM) or without lenalidomide in the absence or presence of immobilized anti-CD3 for 3 days. T cells were then used in a cytotoxicity assay with DuoBody-CD3×CD20 or DuoBody-CD3×ctrl (containing a CD3 arm and a non-binding control arm) and CD20-expressing Daudi cells as target cells (E:T ratio 2:1). Data shown are average percentages cytotoxicity±SD of duplicates, normalized to medium control (no antibody, no lenalidomide).
(§1) Briefly, T cells were activated with immobilized anti-CD3 in the presence (5 or 50 μM) or absence of lenalidomide for 3 days. […] T cells that were activated in the presence or absence of lenalidomide were subsequently tested for their cytotoxic capacity in response to epcoritamab.

[3] = tested on: primary DLBCL and follicular lymphoma patient biopsies; details: biopsies taken after administration of an anti-CD20 antibody; cited from earlier work
T cells = test: T-cell activation with immobilized anti-CD3 in the presence of lenalidomide; type: cell-based; details: lenalidomide 5 or 50 μM with CD3 crosslinking, 3 days, vs no lenalidomide
Description: T cells were pre-incubated with assay medium or lenalidomide in the absence or presence of CD3 crosslinking by immobilized anti-CD3 for 3 days (as indicated on the x-axes), after which upregulation of CD69, CD25, PD-1 and LAMP-1 on CD4^+ and CD8^+ T cells was determined by flow cytometry. Data shown are geomean fluorescence intensities (FI) for four donors (each circle represents one condition for one donor). Pre-incubation conditions are shown on the x-axis.
as §1

CC[C@H](Nc1ncnc2[nH]cnc12)c1nc2cccc(F)c2c(=O)n1-c1ccccc1 [idelalisib]
1-year PFS (follicular lymphoma): 43%

IgG1-CD20: CD20 antibody of which the CD20 arm of epcoritamab is derived (7D8)
Competition for CD20 binding (CD20): compete for CD20 binding

epcoritamab: IgG1 bispecific CD3×CD20 antibody; heavy/light chain pairs SEQ ID NOs: 24/25 and 26/27; CAS 2134641-34-0
Tumor growth in xenograft model [1]: effectively reduce tumor growth | Activity at lower epcoritamab concentrations [2]: higher activity at lower epcoritamab concentrations | Maximum percent cytotoxicity [2]: Higher maximum percent cytotoxicity | T-cell-mediated cytotoxicity in patient biopsies [3]: induced T-cell-mediated cytotoxicity

Nc1cccc2c1CN(C1CCC(=O)NC1=O)C2=O (stereo not shown) [lenalidomide, 3-(4-Amino-1-oxo-1,3-dihydro-2H-isoindol-2-yl) piperidine-2,6-dione]
T-cell activation (upregulation of CD69, CD25; release of granzyme B and IFNγ) (T cells): increased T-cell activation
